Experimental data: the supplement of paper PMC10307832

Columns and labels:
Experiment in all cases: relative viability (nuclei count vs DMSO), 5 days (fraction); higher = more cells survive
[1] = compound: C[As](C)SC[C@H](NC(=O)CC[C@H](N)C(=O)O)C(=O)NCC(=O)O [Darinaparsin] + C[C@]1(O)C[C@@H](c2nc(-c3ccc4ccc(-c5ccccc5)nc4c3)c3c(N)nccn32)C1 [Linsitinib] (partner 1 µM)
Summary of the method: (§1)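 Nuclei were stained with Hoechst during a one-step fixation (final 0.05% Triton X-100, 1% formaldehyde, 1 ug/ml Hoechst) carried out 5 days after dosing, then counted on 4× images. The cells, lung cancer lines in 1536-well plates, had been dosed by pin tool the day after seeding with one drug alone or a fixed anchor-drug dose plus five library-drug doses (not always all listed) in √10 steps. Relative viability is the nuclei count in treated wells divided by that in vehicle wells, and each value is the median of duplicate plates.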

QS11 + Foretinib = compound: C1CC2=C(C1)C=C(C=C2)OC3=NC(=C4C(=N3)N(C=N4)CC5=CC=C(C=C5)C6=CC=CC=C6)N[C@@H](CC7=CC=CC=C7)CO [QS11] + COc1cc2c(Oc3ccc(NC(=O)C4(C(=O)Nc5ccc(F)cc5)CC4)cc3F)ccnc2cc1OCCCN1CCOCC1 [Foretinib] (partner 0.25 µM)
Summary of the method: as §1

QS11 + OSI-027 = compound: C1CC2=C(C1)C=C(C=C2)OC3=NC(=C4C(=N3)N(C=N4)CC5=CC=C(C=C5)C6=CC=CC=C6)N[C@@H](CC7=CC=CC=C7)CO [QS11] + COc1cccc2cc(-c3nc([C@H]4CC[C@H](C(=O)O)CC4)n4ncnc(N)c34)[nH]c12 [OSI-027] (partner 0.5 µM)
Summary of the method: as §1

QS11 + Trametinib = compound: C1CC2=C(C1)C=C(C=C2)OC3=NC(=C4C(=N3)N(C=N4)CC5=CC=C(C=C5)C6=CC=CC=C6)N[C@@H](CC7=CC=CC=C7)CO [QS11] + CC(=O)Nc1cccc(-n2c(=O)n(C3CC3)c(=O)c3c(Nc4ccc(I)cc4F)n(C)c(=O)c(C)c32)c1 [Trametinib] (partner 0.02 µM)
Summary of the method: as §1

Cell Line | relative viability ([1]; first compound 0.08 µM) | relative viability ([1]; first compound 0.8 µM) | relative viability ([1]; first compound 2.53 µM) | relative viability ([1]; first compound 8 µM) | relative viability (QS11 + Foretinib; first compound 0.08 µM) | relative viability (QS11 + Foretinib; first compound 0.253 µM) | relative viability (QS11 + Foretinib; first compound 0.8 µM) | relative viability (QS11 + Foretinib; first compound 2.53 µM) | relative viability (QS11 + Foretinib; first compound 8 µM) | relative viability (QS11 + OSI-027; first compound 0.08 µM) | relative viability (QS11 + OSI-027; first compound 0.253 µM) | relative viability (QS11 + OSI-027; first compound 0.8 µM) | relative viability (QS11 + OSI-027; first compound 2.53 µM) | relative viability (QS11 + OSI-027; first compound 8 µM) | relative viability (QS11 + Trametinib; first compound 0.08 µM) | relative viability (QS11 + Trametinib; first compound 0.253 µM) | relative viability (QS11 + Trametinib; first compound 0.8 µM) | relative viability (QS11 + Trametinib; first compound 2.53 µM) | relative viability (QS11 + Trametinib; first compound 8 µM)
LU99A | 0.618 | 0.633 | 0.475 | 0.581 | 0.785 | 0.796 | 0.855 | 0.772 | 0.748 | 0.255 | 0.306 | 0.299 | 0.291 | 0.315 | 0.532 | 0.626 | 0.517 | 0.5 | 0.533
NCI-H661 | 0.558 | 0.569 | 0.526 | 0.593 | 1 | 1.02 | 0.913 | 1.05 | 1.03 | 0.696 | 0.75 | 0.69 | 0.618 | 0.549 | 0.624 | 0.594 | 0.473 | 0.46 | 0.477
PC-14 | 1.04 | 0.94 | 0.896 | 1.09 | 1.11 | 0.95 | 0.777 | 0.889 | 1.06 | 0.731 | 0.98 | 0.809 | 0.807 | 0.695 | – | 0.66 | 0.698 | 0.717 | 0.634
SK-LU-1 | 1.35 | 0.976 | 1.07 | 1.35 | 0.782 | 0.874 | 0.68 | 0.784 | 0.641 | 0.321 | 0.327 | 0.326 | 0.254 | 0.291 | 0.443 | 0.508 | 0.441 | 0.522 | 0.55
NCI-H2085 | 0.935 | 0.864 | 0.889 | 1.05 | 1.01 | 0.886 | 0.911 | 1.02 | 1 | 0.724 | 0.655 | 0.886 | 0.724 | 0.831 | 0.512 | 0.483 | 0.43 | 0.513 | 0.508
NCI-H1395 | 1.01 | 0.995 | 0.97 | 0.991 | 0.893 | 0.964 | 1.02 | 1 | 1.09 | 0.603 | 0.718 | 0.626 | 0.735 | 0.637 | 0.935 | 1.04 | 1.19 | 1.01 | 1.03
NCI-H1666 | 0.996 | 0.884 | 0.994 | 0.931 | 0.908 | 1.05 | 0.653 | 0.85 | 0.582 | 0.856 | 0.696 | 0.667 | 0.604 | 0.606 | 0.798 | 0.852 | 0.868 | 0.8 | 0.749
NCI-H647 | 1.84 | 1.1 | 1.17 | 1.53 | 1.17 | 1.24 | 0.988 | 1.09 | 1.06 | 0.585 | 0.64 | 0.596 | 0.642 | 0.732 | 0.472 | 0.428 | 0.411 | 0.575 | 0.544
A-427 | 1.2 | 1.09 | 1.13 | 1.12 | 1.13 | 1.15 | – | 1.22 | 1.17 | 0.411 | 0.455 | – | 0.507 | 0.408 | 0.778 | 0.78 | – | 0.805 | 0.767
NCI-H1915 | 1.11 | 1.09 | 1.03 | 1.13 | 1.17 | 1.18 | – | 1.07 | 1.01 | 0.61 | 0.617 | – | 0.622 | 0.591 | 0.292 | 0.292 | – | 0.288 | 0.309
NCI-H1355 | 0.805 | 0.746 | 0.686 | 0.838 | 1.01 | 0.911 | 0.775 | 0.931 | 1.05 | 0.392 | 0.324 | 0.334 | 0.35 | 0.334 | 0.447 | 0.342 | 0.378 | 0.378 | 0.433
HCC-15 | 0.878 | 0.881 | 0.78 | 1.01 | 0.999 | 1.12 | 0.764 | 1.01 | 0.899 | 0.641 | 0.674 | 0.646 | 0.665 | 0.475 | 0.307 | 0.388 | 0.335 | 0.319 | 0.314
HCC-78 | 0.502 | 0.56 | 0.588 | 0.424 | 0.538 | 0.494 | 0.606 | 0.689 | 0.66 | 0.405 | 0.351 | 0.35 | 0.435 | 0.478 | 0.771 | 0.765 | 0.643 | 0.883 | 0.781
NCI-H23 | 0.661 | 0.635 | 0.482 | 0.685 | 1.01 | 1.1 | 0.753 | 0.863 | 0.961 | 0.626 | 0.516 | 0.52 | 0.453 | 0.305 | 0.359 | 0.385 | 0.283 | 0.297 | 0.318
NCI-H838 | 1.28 | 0.962 | 0.997 | 1.24 | 0.993 | 0.953 | 0.688 | 0.898 | 0.85 | 0.339 | 0.366 | 0.362 | 0.378 | 0.359 | 0.558 | 0.535 | 0.355 | 0.469 | 0.383
NCI-H1793 | 0.919 | 1.01 | 0.769 | 1.22 | 0.796 | 0.657 | 0.767 | 0.573 | 0.935 | 0.248 | 0.27 | 0.277 | 0.341 | 0.332 | 0.491 | 0.392 | 0.408 | 0.469 | 0.759
COR-L23 | 1.24 | 0.886 | 0.859 | 1.02 | 0.976 | 1.03 | 0.716 | 0.802 | 0.735 | 0.756 | 0.881 | 0.568 | 0.475 | 0.444 | 0.577 | 0.605 | 0.585 | 0.551 | 0.598
LCLC-103H | 1.12 | 1.05 | 0.936 | 1.24 | 0.526 | 0.883 | 0.672 | 0.7 | 0.784 | 0.434 | 0.45 | 0.469 | 0.49 | 0.502 | 0.705 | 0.681 | – | 0.68 | 0.595
SW 1573 | 0.935 | 0.811 | 0.874 | 0.906 | 0.862 | 0.926 | 1.02 | 0.853 | 1.07 | 0.583 | 0.655 | 0.734 | 0.465 | 0.278 | 0.542 | 0.553 | 0.519 | 0.41 | 0.365
HARA | 1.38 | 0.852 | 0.75 | 1.19 | 0.841 | 0.933 | – | 0.944 | 1.2 | 0.41 | 0.453 | – | 0.457 | 0.595 | 0.652 | – | 0.562 | 0.48 | 0.634
NCI-H1755 | 1.07 | 0.969 | 1.02 | 1.13 | 0.962 | 0.841 | 0.566 | 0.732 | 0.683 | 0.685 | 0.725 | 0.592 | 0.604 | 0.486 | 0.747 | 0.755 | 0.54 | 0.681 | 0.618
NCI-H460 | 0.814 | 1.04 | 0.713 | 1.22 | 1.07 | 0.939 | 0.731 | 1.05 | 0.626 | 0.719 | 0.756 | 0.663 | 0.446 | 0.257 | 0.13 | 0.158 | 0.131 | 0.0849 | 0.0752
NCI-H3122 | 1.1 | 1.08 | 1.08 | 1.03 | 0.979 | 1.08 | – | 1.05 | 0.749 | 1.03 | 1.41 | – | 0.994 | 0.757 | 0.213 | 0.239 | – | 0.253 | 0.343
COR-L 105 | 0.992 | 0.844 | – | 0.978 | 1.08 | 1.25 | 0.924 | 0.991 | 0.992 | 0.711 | 0.521 | 0.547 | 0.629 | 0.447 | 0.433 | 0.424 | 0.414 | 0.415 | 0.445
NCI-H2087 | 1.07 | 0.997 | 1.01 | 0.94 | 1.07 | 1.15 | – | 1.15 | 1.06 | 0.523 | 0.5 | – | 0.532 | 0.532 | 0.243 | 0.219 | 0.211 | 0.22 | 0.205
HCC-366 | 0.969 | 0.609 | 0.427 | 1.06 | 0.985 | 0.962 | – | 0.895 | 0.147 | 0.877 | 0.749 | – | 0.742 | 0.257 | 0.348 | 0.346 | – | 0.218 | 0.116
NCI-H2347 | 1 | 0.942 | 0.911 | 1.03 | 0.825 | 1.18 | 1.01 | 0.942 | 0.994 | 0.489 | 0.474 | 0.411 | 0.371 | 0.347 | 0.27 | 0.292 | 0.273 | 0.313 | 0.286
201T | 1.04 | 1.03 | 1.04 | 1.06 | 1.18 | 1.08 | 0.868 | 1.04 | 0.632 | 0.759 | 0.685 | 0.662 | – | 0.836 | 0.729 | 0.739 | 0.566 | 0.704 | 0.61
NCI-H358 | 0.753 | 0.601 | 0.665 | 0.68 | 0.596 | 0.777 | 1 | 0.936 | 0.52 | 0.774 | 0.854 | 0.888 | 0.849 | 1.01 | 0.117 | 0.136 | 0.167 | 0.153 | 0.157
